Results from patent US8148392B2, “2-indolyl imidazo [4,5-d] phenanthroline derivatives and their use in the treatment of cancer” (Lorus Therapeutics Inc., priority 2005, dated 2012).
pIC50: −log10 of the molar value. Entries after “also recorded” stand apart in the source; their conditions may differ. Read-outs that look alike come from different tables or passages of the source.

Key:
Format in all cases: cell-based, human
KLF4 [1] = test: KLF4 gene expression by RT-PCR, HCT-116; conditions: HCT-116, relative to vehicle control as 1
Description: (§1) Gene expression levels of KLF4, induced by compounds of Formula I, were also examined on various cancer cell types by RT-PCR. Fold changes in KLF4 in compound-treated cells were expressed relative to KLF4 expression in vehicle control-treated cells of respective cell type as “1”. […] Additionally, xenografts of MDA-MB-435 implanted into mammary fat pads of female SCID mice have shown immunohistochemical staining consistent with melanocytic origin (Ellison G, Klinowska T, Westwood R F, Docter E, French T, Fox J C. (2002) Mol Pathol. 55(5): 294-299). The breast cancer cell line MDA-MB-435 may be expected to function differently than the other breast cancer cell lines.

H-460 lung cancer cells = test: XTT cell proliferation assay, H-460
Protocol: (§2) Cell growth inhibition IC50 (μM) by compounds of Formula I was tested on various cancer cell types by XTT cell proliferation assay. The growth inhibitory effects of the compounds of Formula I as shown below for the melanoma cell line SK-MEL-2 were reproducible by Lorus Therapeutics Inc.

KLF4 [2] = test: KLF4 gene expression by RT-PCR, MDA-MB-231; conditions: MDA-MB-231, relative to vehicle control as 1
Description: as §1

MOLT-4 leukemia cells = test: XTT cell proliferation assay, MOLT-4; conditions: read-out: IC50 (cell growth inhibition)
Protocol: as §2

KLF4 [3] = test: KLF4 gene expression by RT-PCR, PC-3; conditions: PC-3, relative to vehicle control as 1
Description: as §1

[4] = system: DU-145 prostate cancer cells; test: XTT cell proliferation assay, DU-145; conditions: read-out: IC50 (cell growth inhibition)
Protocol: as §2

KLF4 [5] = test: KLF4 gene expression by RT-PCR, SK-MEL-2; conditions: SK-MEL-2, relative to vehicle control as 1
Description: as §1

[6] = system: HCT-116 colon cancer cells; test: XTT cell proliferation assay, HCT-116; conditions: read-out: IC50 (cell growth inhibition)
Protocol: as §2

[7] = system: metallothionein 1A (MT1A); test: Metallothionein 1A (MT1A) mRNA expression in HT-29 cells, real time PCR; conditions: for MT1A expression change with zinc supplement: HT-29, 1 μM compound plus 35 μM ZnCl2; for MT1A gene expression, change: HT-29, versus DMSO control, in words
Protocol: To determine whether compounds of Formula I can chelate zinc in cells, the effect of compound 3 on the expression level of a zinc-regulated gene, metallothionein 1A (MT1A), in human colon carcinoma HT-29 cells, was determined. HT-29 cells, 1×10^6 cells in 10 mL volume of the growth medium were seeded in 100 mm dishes and incubated overnight at 37° C. The medium was removed and replaced with the growth medium containing 35 μM ZnCl2, 1 μM or 4 μM TPEN (NNNN-tetrakis(2-pyridyl-methyl)ethylenediamine), or 1 μM or 4 μM compound 3, or 0.1% DMSO vehicle control. After incubation for 16 hours, the cells were detached by trypsinization, collected by centrifugation and washed once with PBS. Total RNA was extracted by using TRIZOL (Invitrogen, Life Technologies, Carlsbad, Calif.), following manufacturer's instruction, and the level of MT1A mRNA was measured by real time PCR using the comparative CT method as follows. First strand cDNA was synthesized from 200 ng total RNA in Biometra Tpersonal Thermal Cycler (Abgene, UK), using pd(N)6 random hexamer (Amersham Biosciences, Piscataway, N.J.) and SuperScript™ II Reverse Transcriptase kit (Invitrogen) by following manufacturer's protocol. Real-time PCR was performed in ABI Prism 7000 Sequence Detection System (Applied Biosystems Inc., ABI, Foster City, Calif.), using 5 μL of cDNA synthesized by above-mentioned procedure and respective TaqMan® Gene Expression Assays (ABI) by following ABI TaqMan® Universal PCR master mix protocol.
The effect of compound 3 and compound 7 treatment on the expressions of a zinc-storage protein meallothionein 1A (MT1A) (FIG. 29A), a copper transporter, Ctrl also known as SLC31A1 (FIG. 29B) and an iron transporter; transferrin receptor 1 (TfR1) (FIG. 29C) were measured and compared with a known zinc chelator TPEN, a copper chelator tetramine and an iron chelator DFO, respectively. Despite in vitro chelation of Cu^+2, increase in copper-sensitive gene after compound 3 treatment was transient.
HT-29 cells were treated with 1 μM compound 3 for the indicated time and MT1A gene expression was measured as follows. Total RNA was extracted using TRIZOL method and gene expression level was determined by quantitative reverse-transcription polymerase chain reaction (RT-PCR). MT1A gene expression was normalized with β-actin gene expression in the same sample. Fold change in MT1A was expressed relative to MT1A level of DMSO control at respective time points.
To verify that the MT1A gene expression reflected the intracellular zinc level, HT-29 cells were treated with 1 μM compound 3, 35 μM ZnCl2 or compound 3 and ZnCl2 together for 16 hr (FIG. 38B). MT1A gene expression was determined by RT-PCR as described above. MT1A gene expression was elevated in response to increased intracellular zinc ions in ZnCl2-treated cells.
(§3) The ability of compounds of Formula I to modulate gene expression of MT1A (FIG. 55A), MTF-1 (FIG. 55B), Cyclin D1 (FIG. 55C) and KLF4 (FIG. 55D) was determined by RT-PCR. HT-29 cells were treated with 1 μM compound 3 or compound 7, 35 μM ZnCl2, compound 3 and ZnCl2 together, or compound 7 and ZnCl2 together for 8 to 16 hr. The respective gene expression was normalized with β-actin gene expression in the same sample. Fold change in gene expression was expressed relative to the respective gene level of DMSO control.
(§4) The effect of compound 3 and compound 64 on gene expression changes in MT1A (FIG. 57A), MTF-1 (FIG. 57B), Cyclin D1 (FIG. 57C) and KLF4 (FIG. 57D) in HT-29 cells was determined by RT-PCR. HT-29 cells were treated with 1 μM compound 3 or compound 64, 35 μM ZnCl2, compound 3 and ZnCl2 together, or compound 64 and ZnCl2 together for 8 to 16 hr. The respective gene expression was normalized with β-actin gene expression in the same sample. Fold change in gene expression was expressed relative to the respective gene level of DMSO control.

Cyclin D1 = Cyclin D1 gene expression in HT-29 cells, RT-PCR; conditions: for Cyclin D1 expression change with zinc supplement: HT-29, 1 μM compound plus ZnCl2; for Cyclin D1 gene expression, change: HT-29, 1 μM, in words
Protocol: Gene and protein expression of Cyclin D1 after treatment with compound 3 was determined by RT-PCR and Western blotting as shown in FIGS. 43A and 43B, respectively, as follows. HT-29 cells were treated with 1 μM compound 3 for indicated time. Total RNA was extracted and gene expression level was determined by RT-PCR. Cyclin D1 protein expression in HT-29 cell lysate was determined by SDS-PAGE followed by Western blotting.
To identify the cell cycle regulatory pathway involved in compound 3-mediated cell cycle arrest as shown in Example 23 and 41, particularly associated with G1/S phase, expression of the key cell cycle regulator of G1/S phase progression, Cyclin D1, was examined.
as §3, §4

[8] = Homo sapiens, NCI-H460, read-out: IC50 (cell growth inhibition)

Cc1[nH]c2ccc(F)cc2c1-c1nc2c3cccnc3c3ncccc3c2[nH]1 [Compound 7]
KLF4 (gene fold increase) (KLF4 [1]): 6.15 fold | pIC50 (H-460 lung cancer cells; [8]): 5.59 | KLF4 (gene fold increase) (KLF4 [2]): 1.6 fold | pIC50 (MOLT-4 leukemia cells; Homo sapiens): 7.15 | KLF4 (gene fold increase) (KLF4 [3]): 12.17 fold | pIC50 ([4]; Homo sapiens): 6.66 | KLF4 (gene fold increase) (KLF4 [5]): 3.32 fold | pIC50 ([6]; Homo sapiens): 6.82 | MT1A expression change with zinc supplement [7]: reversed by addition of zinc supplement | MT1A gene expression, change [7]: decreased expressions of MT1A, MTF-1 and Cyclin D1 | Cyclin D1 expression change with zinc supplement (Cyclin D1): reversed by addition of zinc supplement | Cyclin D1 gene expression, change (Cyclin D1): decreased expressions of MT1A, MTF-1 and Cyclin D1

Cc1[nH]c2ccccc2c1-c1nc2c3cccnc3c3ncccc3c2[nH]1 [Compound 3]
KLF4 (gene fold increase) (KLF4 [1]): 5.88 fold | pIC50 (H-460 lung cancer cells; [8]): 5.54 | KLF4 (gene fold increase) (KLF4 [2]): 1.52 fold | pIC50 (MOLT-4 leukemia cells; Homo sapiens): 6.82 | KLF4 (gene fold increase) (KLF4 [3]): 16.28 fold | pIC50 ([4]; Homo sapiens): 6.46 | KLF4 (gene fold increase) (KLF4 [5]): 2.38 fold | pIC50 ([6]; Homo sapiens): 6.70 | MT1A expression change with zinc supplement [7]: reversed by addition of zinc supplement | decrease of MT1A expression ([7]; HT-29, 16 hours, 1 μM or 4 μM): more than 50% | MT1A gene expression, change [7]: sustained decrease in zinc-sensitive gene; also recorded: decrease in MT1A gene expression was obvious after 8 hr treatment; also recorded: decreased expressions of MT1A, MTF-1 and Cyclin D1 | Cyclin D1 expression change with zinc supplement (Cyclin D1): reversed in the presence of 25 μM ZnCl2; also recorded: reversed by addition of zinc supplement | Cyclin D1 gene expression, change (Cyclin D1): Time-dependent decreases; also recorded: decrease in both gene (FIG. 43A) and protein (FIG. 43B) levels of Cyclin D1; also recorded: significantly decreased; also recorded: decreased expressions of MT1A, MTF-1 and Cyclin D1

CCc1cccc2c(-c3nc4c5cccnc5c5ncccc5c4[nH]3)c(C(C)(C)C)[nH]c12 [Compound 64]
KLF4 (gene fold increase) (KLF4 [1]): 3.05 fold | pIC50 (H-460 lung cancer cells; read-out: IC50 (cell growth inhibition)): 6.52 | KLF4 (gene fold increase) (KLF4 [2]): 2.06 fold | pIC50 (MOLT-4 leukemia cells): 6.76 | KLF4 (gene fold increase) (KLF4 [3]): 1.36 fold | pIC50 [4]: 6.52 | KLF4 (gene fold increase) (KLF4 [5]): 5.35 fold | pIC50 [6]: 6.70 | MT1A expression change with zinc supplement [7]: reversed by addition of zinc supplement | MT1A gene expression, change [7]: decreased expressions of MT1A, MTF-1 and Cyclin D1 | Cyclin D1 expression change with zinc supplement (Cyclin D1): reversed by addition of zinc supplement | Cyclin D1 gene expression, change (Cyclin D1): decreased expressions of MT1A, MTF-1 and Cyclin D1
